Test results taken from patent US9340590B2 (priority 2011, dated 2016).
Positions of bridges follow the written chain, without caps; N, C: chain ends. Residues, ends and D or L forms follow the SMILES beside them.

Tests used:
Assay in all cases: cell-based
hNav1.5 = hNav1.5 (Homo sapiens, UniProt Q14524); conditions: IonWorks Quattro; clamped to −110 mV, depolarized to −10 mV, 5 min after compound; n=2; read-out: IWQ Use Nav1.5
hNav1.7 = hNav1.7 (Homo sapiens, UniProt Q15858); format: cell-based; conditions: IonWorks Quattro; clamped to −110 mV, depolarized to −10 mV, 5 min after compound; n=2; read-out: IWQ Use Nav1.7
hNav1.3 = hNav1.3 (Homo sapiens, UniProt Q9NY46); conditions: IonWorks Quattro; clamped to −110 mV, depolarized to −10 mV, 5 min after compound; n=2; read-out: IWQ Use Nav1.3

Chain of hNav1.5 (Q14524 whole entry, looked up): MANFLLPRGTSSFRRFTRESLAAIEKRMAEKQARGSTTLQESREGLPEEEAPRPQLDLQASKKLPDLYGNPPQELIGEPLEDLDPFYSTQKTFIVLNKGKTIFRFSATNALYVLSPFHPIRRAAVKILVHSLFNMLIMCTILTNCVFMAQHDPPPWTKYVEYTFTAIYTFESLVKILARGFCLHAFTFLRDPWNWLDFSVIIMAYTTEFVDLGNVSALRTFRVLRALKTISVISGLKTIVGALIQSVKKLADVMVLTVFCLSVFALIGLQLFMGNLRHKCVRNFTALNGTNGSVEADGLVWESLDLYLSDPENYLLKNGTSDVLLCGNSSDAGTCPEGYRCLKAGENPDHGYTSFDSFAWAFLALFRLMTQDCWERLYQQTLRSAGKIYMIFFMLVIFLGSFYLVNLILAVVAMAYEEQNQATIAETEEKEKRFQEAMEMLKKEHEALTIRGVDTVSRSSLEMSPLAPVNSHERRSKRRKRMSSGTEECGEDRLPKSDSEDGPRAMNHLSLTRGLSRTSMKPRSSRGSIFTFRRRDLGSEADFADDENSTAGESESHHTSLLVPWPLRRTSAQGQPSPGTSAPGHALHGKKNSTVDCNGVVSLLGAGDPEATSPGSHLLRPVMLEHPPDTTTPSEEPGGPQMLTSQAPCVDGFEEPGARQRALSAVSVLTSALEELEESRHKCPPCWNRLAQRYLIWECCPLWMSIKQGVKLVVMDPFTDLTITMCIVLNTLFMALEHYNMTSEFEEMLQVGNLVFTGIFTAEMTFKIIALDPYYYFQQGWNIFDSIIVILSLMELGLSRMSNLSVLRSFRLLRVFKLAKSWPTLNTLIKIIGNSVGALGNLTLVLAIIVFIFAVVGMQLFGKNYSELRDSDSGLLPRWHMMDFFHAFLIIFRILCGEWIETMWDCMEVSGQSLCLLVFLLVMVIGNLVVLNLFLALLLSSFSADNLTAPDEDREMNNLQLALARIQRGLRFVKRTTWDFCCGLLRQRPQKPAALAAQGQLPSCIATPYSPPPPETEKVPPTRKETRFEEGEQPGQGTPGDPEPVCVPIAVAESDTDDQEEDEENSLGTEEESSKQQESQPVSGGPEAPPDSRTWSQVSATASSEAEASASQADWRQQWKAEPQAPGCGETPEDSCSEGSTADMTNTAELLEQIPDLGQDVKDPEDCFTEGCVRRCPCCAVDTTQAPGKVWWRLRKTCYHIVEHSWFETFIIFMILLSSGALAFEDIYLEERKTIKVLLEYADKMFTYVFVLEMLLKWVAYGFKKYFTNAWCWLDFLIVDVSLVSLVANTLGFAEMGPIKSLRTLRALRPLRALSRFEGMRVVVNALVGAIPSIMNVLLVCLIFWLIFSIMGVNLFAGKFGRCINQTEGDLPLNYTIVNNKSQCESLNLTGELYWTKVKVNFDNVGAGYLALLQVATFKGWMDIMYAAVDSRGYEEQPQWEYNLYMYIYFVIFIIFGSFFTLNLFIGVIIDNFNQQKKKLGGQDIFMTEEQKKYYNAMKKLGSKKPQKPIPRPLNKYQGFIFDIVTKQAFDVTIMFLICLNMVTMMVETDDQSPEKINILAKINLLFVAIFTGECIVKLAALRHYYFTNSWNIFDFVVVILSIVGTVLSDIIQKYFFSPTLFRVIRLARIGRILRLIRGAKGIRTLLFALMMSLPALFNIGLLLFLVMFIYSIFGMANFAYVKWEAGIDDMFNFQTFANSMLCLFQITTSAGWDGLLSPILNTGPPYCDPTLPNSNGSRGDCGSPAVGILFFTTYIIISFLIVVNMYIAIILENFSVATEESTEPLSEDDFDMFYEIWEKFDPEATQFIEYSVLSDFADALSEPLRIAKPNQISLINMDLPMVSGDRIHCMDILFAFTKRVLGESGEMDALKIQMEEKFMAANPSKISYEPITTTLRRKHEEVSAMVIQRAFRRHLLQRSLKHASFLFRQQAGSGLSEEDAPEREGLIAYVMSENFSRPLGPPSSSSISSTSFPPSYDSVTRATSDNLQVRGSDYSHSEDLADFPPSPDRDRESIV
Chain of hNav1.7 (Q15858 whole entry, looked up): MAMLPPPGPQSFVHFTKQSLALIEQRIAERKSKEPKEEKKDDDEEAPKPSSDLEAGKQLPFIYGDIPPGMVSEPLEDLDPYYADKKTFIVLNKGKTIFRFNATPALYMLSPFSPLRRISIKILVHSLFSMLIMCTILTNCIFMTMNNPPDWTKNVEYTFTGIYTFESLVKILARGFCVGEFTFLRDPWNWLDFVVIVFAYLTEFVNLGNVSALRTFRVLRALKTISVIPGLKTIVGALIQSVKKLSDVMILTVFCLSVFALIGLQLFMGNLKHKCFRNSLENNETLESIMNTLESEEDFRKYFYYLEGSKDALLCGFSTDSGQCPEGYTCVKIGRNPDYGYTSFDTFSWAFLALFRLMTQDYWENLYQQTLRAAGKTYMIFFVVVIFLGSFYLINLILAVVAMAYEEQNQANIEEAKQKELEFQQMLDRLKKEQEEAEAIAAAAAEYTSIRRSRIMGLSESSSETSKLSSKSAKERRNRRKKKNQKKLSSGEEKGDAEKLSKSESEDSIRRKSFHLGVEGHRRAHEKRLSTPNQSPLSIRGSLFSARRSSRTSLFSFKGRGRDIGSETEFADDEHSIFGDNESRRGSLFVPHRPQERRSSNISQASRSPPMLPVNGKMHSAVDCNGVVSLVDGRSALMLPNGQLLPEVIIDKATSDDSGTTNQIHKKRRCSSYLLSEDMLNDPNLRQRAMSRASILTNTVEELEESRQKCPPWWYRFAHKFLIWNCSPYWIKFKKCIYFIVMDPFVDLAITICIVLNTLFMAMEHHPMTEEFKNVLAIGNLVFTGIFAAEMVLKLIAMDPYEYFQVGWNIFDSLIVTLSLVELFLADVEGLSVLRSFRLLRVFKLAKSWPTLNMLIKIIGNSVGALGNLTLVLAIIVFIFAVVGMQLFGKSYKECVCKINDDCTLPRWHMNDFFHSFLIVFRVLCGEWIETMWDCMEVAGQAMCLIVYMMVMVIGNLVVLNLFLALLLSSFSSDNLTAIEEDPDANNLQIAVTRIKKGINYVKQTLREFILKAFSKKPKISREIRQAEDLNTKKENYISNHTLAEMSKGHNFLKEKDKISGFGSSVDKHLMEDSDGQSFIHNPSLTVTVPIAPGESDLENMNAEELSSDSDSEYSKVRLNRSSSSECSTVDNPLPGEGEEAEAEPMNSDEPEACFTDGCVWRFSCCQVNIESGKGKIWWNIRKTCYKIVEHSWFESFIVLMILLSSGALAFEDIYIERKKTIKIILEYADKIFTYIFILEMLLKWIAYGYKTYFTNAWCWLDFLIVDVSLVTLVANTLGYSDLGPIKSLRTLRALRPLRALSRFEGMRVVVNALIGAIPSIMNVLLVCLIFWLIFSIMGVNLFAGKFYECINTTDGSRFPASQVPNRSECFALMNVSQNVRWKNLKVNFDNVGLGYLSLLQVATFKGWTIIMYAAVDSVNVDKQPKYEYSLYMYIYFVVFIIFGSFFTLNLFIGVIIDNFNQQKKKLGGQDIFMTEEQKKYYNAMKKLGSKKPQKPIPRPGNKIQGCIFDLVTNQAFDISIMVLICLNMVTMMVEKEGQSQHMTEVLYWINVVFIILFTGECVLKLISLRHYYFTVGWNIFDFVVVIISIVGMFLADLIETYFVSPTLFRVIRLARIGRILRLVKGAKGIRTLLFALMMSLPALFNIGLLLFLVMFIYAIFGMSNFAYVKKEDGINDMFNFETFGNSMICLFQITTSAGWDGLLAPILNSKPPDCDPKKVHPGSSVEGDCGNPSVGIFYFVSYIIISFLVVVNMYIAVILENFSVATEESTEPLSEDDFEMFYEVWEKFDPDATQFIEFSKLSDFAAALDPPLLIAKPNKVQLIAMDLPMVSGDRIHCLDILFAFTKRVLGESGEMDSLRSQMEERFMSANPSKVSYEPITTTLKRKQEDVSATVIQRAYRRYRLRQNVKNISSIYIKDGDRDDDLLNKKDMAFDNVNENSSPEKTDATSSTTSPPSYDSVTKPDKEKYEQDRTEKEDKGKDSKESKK

SMILES	IC50 (hNav1.5) [µM]	IC50 (hNav1.7) [µM]	IC50 (hNav1.3) [µM]
CC[C@H](C)[C@@H]1NC(=O)[C@@H]2CSSC[C@@H]3NC(=O)[C@H](C(C)C)NC(=O)[C@H](CC(C)C)NC(=O)[C@H](CC(N)=O)NC(=O)[C@@H]4CCCN4C(=O)[C@H](CCCNC(=N)N)NC(=O)[C@H](CSSC[C@H](NC(=O)[C@@H](N)CC(=O)O)C(=O)N[C@@H](CC(C)C)C(=O)NCC(=O)N[C@@H](Cc4ccccc4)C(=O)N[C@@H](CC(N)=O)C(=O)N[C@@H](CCCNC(=N)N)C(=O)N[C@@H](CCCCN)C(=O)N2)NC(=O)[C@H](CSSC[C@@H](C(=O)N[C@@H](CCCCN)C(=O)N[C@@H](Cc2ccc(O)cc2)C(=O)N[C@H](C(=O)N[C@@H](Cc2ccccc2)C(N)=O)C(C)C)NC(=O)[C@H](Cc2c[nH]c4ccccc24)NC(=O)[C@H](CCCCN)NC(=O)[C@H](Cc2c[nH]cn2)NC(=O)[C@H]([C@@H](C)O)NC(=O)[C@H](CCCNC(=N)N)NC(=O)[C@H](CO)NC3=O)NC(=O)[C@H](CCCCN)NC(=O)[C@H](CC(=O)O)NC(=O)[C@H](CC(N)=O)NC(=O)[C@H](CC(=O)O)NC(=O)[C@@H]2CCCN2C1=O [SEQ ID NO: 278] (H-DCLGFNRKCIPDNDKCCRPNLVCSRTHKWCKYVF-NH2; disulfide 2-17, 9-23, 16-30)	10.3	6.89	6.28
CC[C@H](C)[C@@H]1NC(=O)[C@@H]2CSSC[C@@H]3NC(=O)[C@H](C(C)C)NC(=O)[C@H](CC(C)C)NC(=O)[C@H](CC(N)=O)NC(=O)[C@@H]4CCCN4C(=O)[C@H](CCCNC(=N)N)NC(=O)[C@H](CSSC[C@H](NC(=O)[C@@H](N)CC(=O)O)C(=O)N[C@@H](CC(C)C)C(=O)NCC(=O)N[C@@H](Cc4ccccc4)C(=O)N[C@@H](CCC(N)=O)C(=O)N[C@@H](CCCNC(=N)N)C(=O)N[C@@H](CCCCN)C(=O)N2)NC(=O)[C@H](CSSC[C@@H](C(=O)N[C@@H](CCCCN)C(=O)N[C@@H](Cc2ccc(O)cc2)C(=O)N[C@H](C(=O)N[C@@H](Cc2ccccc2)C(N)=O)C(C)C)NC(=O)[C@H](Cc2c[nH]c4ccccc24)NC(=O)[C@H](CCCCN)NC(=O)[C@H](Cc2c[nH]cn2)NC(=O)[C@H]([C@@H](C)O)NC(=O)[C@H](CCCNC(=N)N)NC(=O)[C@H](CO)NC3=O)NC(=O)[C@H](CCCCN)NC(=O)[C@H](CC(=O)O)NC(=O)[C@H](CC(N)=O)NC(=O)[C@H](CC(=O)O)NC(=O)[C@@H]2CCCN2C1=O [SEQ ID NO: 279] (H-DCLGFQRKCIPDNDKCCRPNLVCSRTHKWCKYVF-NH2; disulfide 2-17, 9-23, 16-30)	7.57	8.62	5.96
CC[C@H](C)[C@@H]1NC(=O)[C@@H]2CSSC[C@@H]3NC(=O)[C@H](C(C)C)NC(=O)[C@H](CC(C)C)NC(=O)[C@H](CC(N)=O)NC(=O)[C@@H]4CCCN4C(=O)[C@H](CCCNC(=N)N)NC(=O)[C@H](CSSC[C@H](NC(=O)[C@@H](N)CC(=O)O)C(=O)N[C@@H](CC(C)C)C(=O)NCC(=O)N[C@@H](Cc4ccccc4)C(=O)NCC(=O)N[C@@H](CCCNC(=N)N)C(=O)N[C@@H](CCCCN)C(=O)N2)NC(=O)[C@H](CSSC[C@@H](C(=O)N[C@@H](CCCCN)C(=O)N[C@@H](Cc2ccc(O)cc2)C(=O)N[C@H](C(=O)N[C@@H](Cc2ccccc2)C(N)=O)C(C)C)NC(=O)[C@H](Cc2c[nH]c4ccccc24)NC(=O)[C@H](CCCCN)NC(=O)[C@H](Cc2c[nH]cn2)NC(=O)[C@H]([C@@H](C)O)NC(=O)[C@H](CCCNC(=N)N)NC(=O)[C@H](CO)NC3=O)NC(=O)[C@H](CCCCN)NC(=O)[C@H](CC(=O)O)NC(=O)[C@H](CC(N)=O)NC(=O)[C@H](CC(=O)O)NC(=O)[C@@H]2CCCN2C1=O [SEQ ID NO: 280] (H-DCLGFGRKCIPDNDKCCRPNLVCSRTHKWCKYVF-NH2; disulfide 2-17, 9-23, 16-30)	8.2	0.18	0.14
CC[C@H](C)[C@@H]1NC(=O)[C@@H]2CSSC[C@@H]3NC(=O)[C@H](C(C)C)NC(=O)[C@H](CC(C)C)NC(=O)[C@H](CC(N)=O)NC(=O)[C@@H]4CCCN4C(=O)[C@H](CCCNC(=N)N)NC(=O)[C@H](CSSC[C@H](NC(=O)[C@@H](N)CC(=O)O)C(=O)N[C@@H](CC(C)C)C(=O)NCC(=O)N[C@@H](Cc4ccccc4)C(=O)N[C@@H](Cc4c[nH]cn4)C(=O)N[C@@H](CCCNC(=N)N)C(=O)N[C@@H](CCCCN)C(=O)N2)NC(=O)[C@H](CSSC[C@@H](C(=O)N[C@@H](CCCCN)C(=O)N[C@@H](Cc2ccc(O)cc2)C(=O)N[C@H](C(=O)N[C@@H](Cc2ccccc2)C(N)=O)C(C)C)NC(=O)[C@H](Cc2c[nH]c4ccccc24)NC(=O)[C@H](CCCCN)NC(=O)[C@H](Cc2c[nH]cn2)NC(=O)[C@H]([C@@H](C)O)NC(=O)[C@H](CCCNC(=N)N)NC(=O)[C@H](CO)NC3=O)NC(=O)[C@H](CCCCN)NC(=O)[C@H](CC(=O)O)NC(=O)[C@H](CC(N)=O)NC(=O)[C@H](CC(=O)O)NC(=O)[C@@H]2CCCN2C1=O [SEQ ID NO: 281] (H-DCLGFHRKCIPDNDKCCRPNLVCSRTHKWCKYVF-NH2; disulfide 2-17, 9-23, 16-30)	10.1	4.72	7.77
CC[C@H](C)[C@@H]1NC(=O)[C@H](Cc2ccccc2)NC(=O)CNC(=O)[C@H](CC(C)C)NC(=O)[C@@H](NC(=O)[C@@H](N)CC(=O)O)CSSC[C@@H]2NC(=O)[C@@H]3CSSC[C@@H](C(=O)N[C@@H](CCCCN)C(=O)N[C@@H](Cc4ccc(O)cc4)C(=O)N[C@H](C(=O)N[C@@H](Cc4ccccc4)C(N)=O)C(C)C)NC(=O)[C@H](Cc4c[nH]c5ccccc45)NC(=O)[C@H](CCCCN)NC(=O)[C@H](Cc4c[nH]cn4)NC(=O)[C@H]([C@@H](C)O)NC(=O)[C@H](CCCNC(=N)N)NC(=O)[C@H](CO)NC(=O)[C@H](CSSC[C@H](NC(=O)[C@H](CCCCN)NC(=O)[C@H](CCCNC(=N)N)NC1=O)C(=O)N[C@@H]([C@@H](C)CC)C(=O)N1CCC[C@H]1C(=O)N[C@@H](CC(=O)O)C(=O)N[C@@H](CC(N)=O)C(=O)N[C@@H](CC(=O)O)C(=O)N[C@@H](CCCCN)C(=O)N3)NC(=O)[C@H](C(C)C)NC(=O)[C@H](CC(C)C)NC(=O)[C@H](CC(N)=O)NC(=O)[C@@H]1CCCN1C(=O)[C@H](CCCNC(=N)N)NC2=O [SEQ ID NO: 282] (H-DCLGFIRKCIPDNDKCCRPNLVCSRTHKWCKYVF-NH2; disulfide 2-17, 9-23, 16-30)	8.63	0.07	0.06
CC[C@H](C)[C@@H]1NC(=O)[C@@H]2CSSC[C@@H]3NC(=O)[C@H](C(C)C)NC(=O)[C@H](CC(C)C)NC(=O)[C@H](CC(N)=O)NC(=O)[C@@H]4CCCN4C(=O)[C@H](CCCNC(=N)N)NC(=O)[C@H](CSSC[C@H](NC(=O)[C@@H](N)CC(=O)O)C(=O)N[C@@H](CC(C)C)C(=O)NCC(=O)N[C@@H](Cc4ccccc4)C(=O)N[C@@H](CO)C(=O)N[C@@H](CCCNC(=N)N)C(=O)N[C@@H](CCCCN)C(=O)N2)NC(=O)[C@H](CSSC[C@@H](C(=O)N[C@@H](CCCCN)C(=O)N[C@@H](Cc2ccc(O)cc2)C(=O)N[C@H](C(=O)N[C@@H](Cc2ccccc2)C(N)=O)C(C)C)NC(=O)[C@H](Cc2c[nH]c4ccccc24)NC(=O)[C@H](CCCCN)NC(=O)[C@H](Cc2c[nH]cn2)NC(=O)[C@H]([C@@H](C)O)NC(=O)[C@H](CCCNC(=N)N)NC(=O)[C@H](CO)NC3=O)NC(=O)[C@H](CCCCN)NC(=O)[C@H](CC(=O)O)NC(=O)[C@H](CC(N)=O)NC(=O)[C@H](CC(=O)O)NC(=O)[C@@H]2CCCN2C1=O [SEQ ID NO: 284] (H-DCLGFSRKCIPDNDKCCRPNLVCSRTHKWCKYVF-NH2; disulfide 2-17, 9-23, 16-30)	16.9	1.02	0.71
CC[C@H](C)[C@@H]1NC(=O)[C@@H]2CSSC[C@@H]3NC(=O)[C@H](C(C)C)NC(=O)[C@H](CC(C)C)NC(=O)[C@H](CC(N)=O)NC(=O)[C@@H]4CCCN4C(=O)[C@H](CCCNC(=N)N)NC(=O)[C@H](CSSC[C@H](NC(=O)[C@@H](N)CC(=O)O)C(=O)N[C@@H](CC(C)C)C(=O)NCC(=O)N[C@@H](Cc4ccccc4)C(=O)N[C@@H]([C@@H](C)O)C(=O)N[C@@H](CCCNC(=N)N)C(=O)N[C@@H](CCCCN)C(=O)N2)NC(=O)[C@H](CSSC[C@@H](C(=O)N[C@@H](CCCCN)C(=O)N[C@@H](Cc2ccc(O)cc2)C(=O)N[C@H](C(=O)N[C@@H](Cc2ccccc2)C(N)=O)C(C)C)NC(=O)[C@H](Cc2c[nH]c4ccccc24)NC(=O)[C@H](CCCCN)NC(=O)[C@H](Cc2c[nH]cn2)NC(=O)[C@H]([C@@H](C)O)NC(=O)[C@H](CCCNC(=N)N)NC(=O)[C@H](CO)NC3=O)NC(=O)[C@H](CCCCN)NC(=O)[C@H](CC(=O)O)NC(=O)[C@H](CC(N)=O)NC(=O)[C@H](CC(=O)O)NC(=O)[C@@H]2CCCN2C1=O [SEQ ID NO: 285] (H-DCLGFTRKCIPDNDKCCRPNLVCSRTHKWCKYVF-NH2; disulfide 2-17, 9-23, 16-30)	18.7	0.59	0.28
CC[C@H](C)[C@@H]1NC(=O)[C@@H]2CSSC[C@@H]3NC(=O)[C@H](C(C)C)NC(=O)[C@H](CC(C)C)NC(=O)[C@H](CC(N)=O)NC(=O)[C@@H]4CCCN4C(=O)[C@H](CCCNC(=N)N)NC(=O)[C@H](CSSC[C@H](NC(=O)[C@@H](N)CC(=O)O)C(=O)N[C@@H](CC(C)C)C(=O)NCC(=O)N[C@@H](Cc4ccccc4)C(=O)N[C@@H](C(C)C)C(=O)N[C@@H](CCCNC(=N)N)C(=O)N[C@@H](CCCCN)C(=O)N2)NC(=O)[C@H](CSSC[C@@H](C(=O)N[C@@H](CCCCN)C(=O)N[C@@H](Cc2ccc(O)cc2)C(=O)N[C@H](C(=O)N[C@@H](Cc2ccccc2)C(N)=O)C(C)C)NC(=O)[C@H](Cc2c[nH]c4ccccc24)NC(=O)[C@H](CCCCN)NC(=O)[C@H](Cc2c[nH]cn2)NC(=O)[C@H]([C@@H](C)O)NC(=O)[C@H](CCCNC(=N)N)NC(=O)[C@H](CO)NC3=O)NC(=O)[C@H](CCCCN)NC(=O)[C@H](CC(=O)O)NC(=O)[C@H](CC(N)=O)NC(=O)[C@H](CC(=O)O)NC(=O)[C@@H]2CCCN2C1=O [SEQ ID NO: 287] (H-DCLGFVRKCIPDNDKCCRPNLVCSRTHKWCKYVF-NH2; disulfide 2-17, 9-23, 16-30)	9.23	0.09	0.08
